This note sets out measurements from US9718790B2, “Triazine derivative and pharmaceutical composition having an analgesic activity comprising the same” (SHIONOGI & CO., LTD., priority 2010, dated 2017).

As a reminder, the IC50 is the midpoint of a concentration-inhibition curve.

The first experiment deals with human P2X3 receptor (Homo sapiens (Human), UniProt P56373). Nature of the experiment: Evaluation of human P2X3 receptor inhibitory activity (Fluo-3 calcium fluorescence, FDSS 3000, ATP stimulation).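 Further: stimulus was 50 nM ATP with fluorescence followed for 3 min, and the response per well was peak post-ATP fluorescence divided by the reading at measurement start.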 The experiment is classed as cell-based. As to conditions: C6BU-1 cells stably expressing human P2X3 receptor.
human P2X3 receptor, sequence (P56373 whole entry): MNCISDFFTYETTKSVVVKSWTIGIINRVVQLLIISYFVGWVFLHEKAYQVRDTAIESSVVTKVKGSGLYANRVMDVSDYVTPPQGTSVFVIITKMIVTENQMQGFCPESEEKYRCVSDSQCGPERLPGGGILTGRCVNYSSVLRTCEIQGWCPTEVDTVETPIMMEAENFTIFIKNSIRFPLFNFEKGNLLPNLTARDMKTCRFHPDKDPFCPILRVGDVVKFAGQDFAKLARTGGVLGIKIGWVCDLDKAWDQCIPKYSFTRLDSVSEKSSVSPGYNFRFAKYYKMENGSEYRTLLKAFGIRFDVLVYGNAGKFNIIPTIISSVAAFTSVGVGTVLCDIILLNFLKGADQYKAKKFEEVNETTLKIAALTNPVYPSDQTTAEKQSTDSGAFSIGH
Consider `C[C@@H](Cn1c(=O)[nH]/c(=N\c2ccc3oc(C(=O)O)cc3c2)n(Cc2ccc(Cl)cc2)c1=O)C(=O)O` [Compound I-1952], for which the IC50 worked out at 781 nM.
For the molecule `Cc1ccc(Cn2c(=O)n(C[C@H](C)C(=O)O)c(=O)[nH]/c2=N\c2ccc(Oc3cc(C)nc(C)c3)cc2)cc1` [Compound I-1260], the IC50 is 31 nM.
Take `CCn1c(=O)[nH]/c(=N\c2ccc(Oc3cc(C(=O)OC)ncn3)cc2)n(Cc2ccc(Cl)cc2)c1=O` [Compound I-2206]: the IC50 was determined as 12 nM.
For the molecule `CC(C)Oc1ccc(/N=c2\[nH]c(=O)n(CC(=O)N3CCNCC3)c(=O)n2Cc2ccc(Cl)cc2)cc1Cl` [Compound I-0742], the IC50 is 38 nM.
Turning to `NC(=O)Cn1c(=O)[nH]/c(=N\c2ccc(OC3CCC3)cc2)n(Cc2ccc(Cl)cc2)c1=O` [Compound I-1946], the IC50 came out at 25 nM.
The same measure, in the same setting: under `Cc1cc(Oc2ccc(/N=c3\[nH]c(=O)n(CC(N)=O)c(=O)n3Cc3ccc(Cl)cc3)cc2)ccn1` [Compound I-1926] stands 10 nM; under `CCOC(=O)CCn1c(=O)[nH]/c(=N\c2ccc(Oc3cccc(F)c3)cc2)n(Cc2ccc(Cl)cc2)c1=O` [Compound I-1937], 22 nM.
On the same count and under the same terms, under `COC(=O)[C@@H](C)Cn1c(=O)[nH]/c(=N\c2ccc(N3CCCCCC3)cc2)n(Cc2ccc(C)cc2)c1=O` [Compound I-1234] stands 230 nM; under `C[C@@H](Cn1c(=O)[nH]/c(=N\c2ccc3ncccc3c2)n(Cc2ccc(Cl)cc2)c1=O)C(=O)O` [Compound I-1346], 812 nM.
Take `CCCCCc1ccc(/N=c2\[nH]c(=O)n(C[C@H](C)C(=O)OC)c(=O)n2Cc2ccc(C)cc2)cc1` [Compound I-1203]: the IC50 stood at 532 nM.
For `CC(C)Oc1ccc(/N=c2\[nH]c(=O)n(CCS(N)(=O)=O)c(=O)n2Cc2ccc(Cl)cc2)cc1F` [Compound I-0693, 1-(4-chlorobenzyl)-6-(3-fluoro-4-isopropoxyphenylimino)-3-(2-sulfamoylethyl)-1,3,5-triazinane-2,4-dion], the concentration for half-maximal inhibition (IC50) was found to be 13 nM.
Turning to `COC(=O)[C@@H](C)[C@@H](C)n1c(=O)[nH]/c(=N\c2cccc(C(F)(F)F)c2)n(Cc2ccc(Cl)cc2)c1=O` [Compound I-1317], the IC50 was 105 nM.
On to `CCn1c(=O)[nH]/c(=N\c2ccc(Oc3cncc(C(=O)O)c3)cc2)n(Cc2ccc(C)cc2)c1=O` [Compound I-2078], for which the IC50 stood at 8 nM.
As for `C[C@@H](Cn1c(=O)[nH]/c(=N\c2ccc(OCCO)cc2)n(Cc2ccc(Cl)cc2)c1=O)C(=O)O` [Compound I-0733], the IC50 worked out at 287 nM.
With `COC(=O)[C@@H](C)[C@@H](C)n1c(=O)[nH]/c(=N\c2ccc(OCC3CC3)cc2)n(Cc2ccc(Cl)cc2)c1=O` [Compound I-1316], the IC50 is 54 nM.
Still for that read-out and setting: the figure for `O=c1[nH]/c(=N\c2ccc3nc(C4CC4)sc3c2)n(Cc2ccc(Cl)cc2)c(=O)n1CC(CO)CO` [Compound I-1983] is 10 nM; for `Cc1cc(Oc2ccc(/N=c3\[nH]c(=O)n(CCC(=O)O)c(=O)n3CC3CCC(C)CC3)cc2)ccn1` (centres unmarked) [Compound I-1976] it is 17 nM; for `Cc1ccc(Cn2c(=O)n(C[C@H](C)C(=O)O)c(=O)[nH]/c2=N\c2ccc3nc(C)oc3c2)cc1` [Compound I-1279] it is 158 nM.

The experiment is the same for the next values; noted with them: C6BU-1 cells stably expressing human P2X3 receptor, Fluo-3 fluorescence, FDSS 3000.
Regarding `Cc1ccc(Cn2c(=O)n(C[C@H](C)C(=O)O)c(=O)[nH]/c2=N\c2cccc(CC(C)C)c2)cc1` [Compound I-1137], the IC50 was 678 nM.
For `Cc1ccc(Cn2c(=O)n(CCC(=O)O)c(=O)[nH]/c2=N\c2ccc(OCC3CC3)c(Cl)c2)cc1` [Compound I-0968], the IC50 turned out to be 107 nM.
The same measure, in the same setting: the figure for `CC(C)Oc1ccc(/N=c2\[nH]c(=O)n(Cc3cc(O)no3)c(=O)n2Cc2ccc(Cl)cc2)cc1F` [Compound I-1767] is 55 nM; for `CCc1nc2ccc(/N=c3\[nH]c(=O)n(CC(=O)NCCO)c(=O)n3Cc3ccc(Cl)cc3)cc2s1` [Compound I-1808] it is 4 nM.
On to `Cc1ccc(Oc2ccc(/N=c3\[nH]c(=O)n(CCCO)c(=O)n3Cc3ccc(Cl)cc3)cc2)cn1` [Compound I-1597], for which the IC50 is 4 nM.
For the molecule `COC(=O)[C@@H](C)Cn1c(=O)[nH]/c(=N\c2ccc(OC(F)(F)F)cc2)n(Cc2ccc(C)cc2)c1=O` [Compound I-0999], the IC50 came out at 174 nM.
Still for that read-out and setting: the figure for `CCC[C@H](C)Oc1ccc(/N=c2\[nH]c(=O)n(C[C@H](C)C(=O)O)c(=O)n2Cc2ccc(C)cc2)cc1` [Compound I-1060] is 29 nM; for `COC(=O)CCn1c(=O)[nH]/c(=N\c2ccccc2NC(C)=O)n(Cc2ccc(C)cc2)c1=O` [Compound I-1892] it is 113 nM; for `COC(=O)[C@@H](C)Cn1c(=O)[nH]/c(=N\c2ccc(C=C3CCCC3)cc2)n(Cc2ccc(C)cc2)c1=O` [Compound I-1094] it is 103 nM.
Turning to `CC(C)Oc1ccc(/N=c2\[nH]c(=O)n(CC(CO)(CO)C(=O)O)c(=O)n2Cc2ccc(Cl)cc2)cc1Cl` [Compound I-1012], the IC50 came to 51 nM.
As to `COC(=O)[C@@H](C)Cn1c(=O)[nH]/c(=N\c2ccc(Cl)c(C(F)(F)F)c2)n(Cc2ccc(C)cc2)c1=O` [Compound I-1000], the IC50 was found to be 116 nM.
On the same count and under the same terms, under `CCCOc1ccc(/N=c2\[nH]c(=O)n(C[C@@H](C)C(=O)OC)c(=O)n2Cc2ccc(Cl)cc2)cc1` [Compound I-1034] stands 5 nM; under `COc1cc(/N=c2\[nH]c(=O)n(C[C@H](C)C(=O)O)c(=O)n2Cc2ccc(C)cc2)ccc1OC(C)C` [Compound I-1135], 18 nM.
For `COC(=O)CN1CCC(Cn2c(=O)[nH]/c(=N\c3ccc(OC(C)C)c(C)c3)n(Cc3ccc(Cl)cc3)c2=O)CC1` [Compound I-1638], the IC50 was determined as 13 nM.
On to `CC[C@@H](C)Oc1ccc(/N=c2\[nH]c(=O)n([C@H](C)CC(=O)O)c(=O)n2Cc2ccc(C)cc2)cc1` [Compound I-0936], for which the IC50 was 65 nM.
Consider `COC(=O)[C@@H](C)Cn1c(=O)[nH]/c(=N\c2ccc(C=C(C)C)c(Cl)c2)n(Cc2ccc(Cl)cc2)c1=O` [Compound I-0955], for which the IC50 worked out at 28 nM.
On to `CCCCOc1ccc(/N=c2\[nH]c(=O)n(CC3(C(=O)OCC)CC3)c(=O)n2Cc2ccc(Cl)cc2)cc1` [Compound I-1005], for which the IC50 stood at 31 nM.
Regarding `COC(=O)[C@H](C)[C@H](C)n1c(=O)[nH]/c(=N\c2ccc(OCC3CC3)c(Cl)c2)n(Cc2ccc(C)cc2)c1=O` [Compound I-0969], the IC50 amounted to 47 nM.

Still in this experiment, the particulars now being: human P2X3 receptor, Test Example 1.
With `COC(=O)[C@@H](C)Cn1c(=O)[nH]/c(=N\c2ccc(OCC(F)F)cc2)n(Cc2ccc(C)cc2)c1=O` [Compound I-0847], the IC50 worked out at 31 nM.
Take `Cn1c(=O)[nH]/c(=N\c2ccc(Oc3cccc(C#N)n3)cc2)n(Cc2ccc(Cl)cc2)c1=O` [Compound I-2374]: the IC50 was determined as 8 nM.
As to `Cc1nsc(Oc2ccc(/N=c3\[nH]c(=O)n(CC(=O)NCCO)c(=O)n3Cc3ccc(Cl)cc3)cc2)n1` [Compound I-2678], the IC50 is 3 nM.
For `NC(=O)Cn1c(=O)[nH]/c(=N\c2ccc(Oc3cccnn3)cc2)n(Cc2ccc(Cl)cc2)c1=O` [Compound I-2689], the IC50 came to 20 nM.
Regarding `O=c1[nH]/c(=N\c2ccc(Oc3ccon3)cc2)n(Cc2ccc(F)cc2)c(=O)n1CCCOC1CCCCO1` (centres unmarked) [Compound I-2394], the IC50 was 21 nM.
Turning to `O=c1[nH]/c(=N\c2ccc(Oc3ccsn3)cc2)n(Cc2ccc(Cl)cc2)c(=O)n1C[C@H](O)CO` [Compound I-2530], the IC50 was determined as 16 nM.
As to `C[C@@H](CO)n1c(=O)[nH]/c(=N\c2ccc(Oc3ccon3)cc2)n(Cc2ccc(Cl)cc2)c1=O` [Compound I-2489], the IC50 was determined as 50 nM.
For `CCn1c(=O)[nH]/c(=N\c2ccc(Oc3cncc(C(=O)OC)n3)cc2)n(Cc2ccc(Cl)cc2)c1=O` [Compound I-2270], the IC50 was under 4 nM.
In the case of `CCn1c(=O)[nH]/c(=N\c2ccc(Oc3ncc(C(N)=O)s3)cc2)n(Cc2ccc(Cl)cc2)c1=O` [Compound I-2609], the IC50 was determined as 2 nM.
Turning to `CCn1c(=O)[nH]/c(=N\c2ccc(Oc3nccc(C(=O)O)n3)cc2)n(Cc2ccc(C)cc2)c1=O` [Compound I-2404], the IC50 is 16 nM.
The same measure, in the same setting: the figure for `O=c1[nH]/c(=N\c2ccc(Oc3cccc(O)n3)cc2)n(Cc2ccc(Cl)cc2)c(=O)n1CC(CO)CO` [Compound I-2685] is 12 nM; for `Cc1cc(/N=c2\[nH]c(=O)n([C@H](C)[C@H](C)C(=O)O)c(=O)n2Cc2ccc(Cl)cc2)ccc1OC(C)C` [Compound I-0825] it is 25 nM; for `CCCOc1ccc(/N=c2\[nH]c(=O)n(C[C@H](CC)C(=O)O)c(=O)n2Cc2ccc(C)cc2)cc1` [Compound I-0885] it is 87 nM.
Still for that read-out and setting: the figure for `CNC(=O)CCn1c(=O)[nH]/c(=N\c2ccc3nc(C)sc3c2)n(Cc2ccc(Cl)cc2)c1=O` [Compound I-1543] is 6 nM.
For the molecule `CCn1c(=O)[nH]/c(=N\c2ccc(Oc3cccc(/C=C/C(=O)O)c3)cc2)n(Cc2ccc(C)cc2)c1=O` [Compound I-2344], the IC50 amounted to 3 nM.
For the molecule `COC(=O)CCn1c(=O)[nH]/c(=N\c2ccc(Oc3ncns3)cc2)n(Cc2ccc(Cl)cc2)c1=O` [Compound I-2652], the IC50 was 3 nM.
On to `CCn1c(=O)[nH]/c(=N\c2ccc(Oc3cccc(C(=O)NC#N)n3)cc2)n(Cc2ccc(Cl)cc2)c1=O` [Compound I-2593], for which the IC50 was 1 nM.
Turning to `CCn1c(=O)[nH]/c(=N\c2ccc(Oc3nc(C(N)=O)cs3)cc2)n(Cc2ccc(Cl)cc2)c1=O` [Compound I-2608], the IC50 was found to be 6 nM.
For the molecule `Cn1c(=O)[nH]/c(=N\c2ccc(Oc3ccc(C(=O)O)nn3)cc2)n(Cc2ccc(Cl)cc2)c1=O` [Compound I-2381], the IC50 came to 54 nM.
Still for that read-out and setting: the figure for `CCn1c(=O)[nH]/c(=N\c2ccc3nc(/C=N\OC)sc3c2)n(Cc2ccc(Cl)cc2)c1=O` [Compound I-2338] is 260 nM.
On to `COC(=O)[C@@H](C)Cn1c(=O)[nH]/c(=N\c2cnc(OC3CCC3)c(C)c2)n(Cc2ccc(Cl)cc2)c1=O` [Compound I-1479], for which the IC50 was found to be 20 nM.
Take `COc1ccc(Oc2ccc(/N=c3\[nH]c(=O)n(CCC(=O)O)c(=O)n3Cc3ccc(Cl)cc3)cc2)cn1` [Compound I-1533]: the IC50 is 16 nM.
In the case of `CCn1c(=O)[nH]/c(=N\[C@H]2CC[C@H](Oc3ccnc(C(=O)O)c3)CC2)n(Cc2ccc(Cl)cc2)c1=O` [Compound I-2297], the IC50 is 65 nM.
